From patent publication US20250346588A1, “IMIDAZOPYRIDINE AND OXAZOLOPYRIDINE DERIVATIVES AND ANALOGS THEREOF, METHODS OF PREPARATION THEREOF, METHODS OF HIF-1/2A PATHWAY INHIBITION, AND INDUCTION OF FERROPTOSIS” (KUDA THERAPEUTICS, INC., priority 2022, published 2025)

Experiments:
[1] = system: RCC10 or 786-0 cells with stable overexpression of empty vector or ISCA2; assay: Cell viability with ISCA2 overexpression; type: cell-based, human; conditions: 24h
[2] = system: HIF target genes VEGFA and POU5F1; assay: qPCR of HIF target genes; type: cell-based, human; conditions: FIG. 2C
Experimental: For qPCR, cells seeded as described above were harvested for RNA isolation using the RNA Clean and Concentrator kit (Zymo Research, Irvine CA) according to the manufacturer's protocol. cDNA was prepared using the High Capacity […] kit from Thermo Fisher Scientific (Waltham, […]). qRT-PCR was performed using pre-designed Taqman Gene Expression assay primer/probes and master mix (Thermo Fisher Scientific) according to the manufacturer's protocol using the QuantStudio 3 Real-Time PCR System (ThermoFisher). Relative changes in gene expression normalized to the control gene, […] was determined using the ΔΔCt method.

ISCA2 = target: T1, ISCA2 (Homo sapiens, UniProt Q86U28); assay: Thermal shift assay with recombinant ISCA2 (SYPRO Orange); type: binding
T1 construct: His6 (N); made in house; host or cells: E. coli Rosetta (DE3)
T1 sequence (Q86U28 9-154): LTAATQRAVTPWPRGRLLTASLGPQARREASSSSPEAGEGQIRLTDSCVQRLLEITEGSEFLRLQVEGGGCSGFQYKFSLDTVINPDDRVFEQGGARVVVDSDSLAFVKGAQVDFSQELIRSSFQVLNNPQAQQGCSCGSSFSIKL
Experimental: Thermal shift assays were performed by monitoring the change in protein melting temperature (Tm) in the absence or presence of test compounds, using the hydrophobic protein binding dye, SYPRO Orange (S6650, Thermo Fisher Scientific), measured using the LightCycler 480 (Roche Life Sciences, Indianapolis, IN) according to the manufacturer's protocol. Recombinant ISCA2 was produced by expressing amino acid residues 9-154 of ISCA2 (ISCA2 lacking its mitochondrial localization sequence) in the pET28 vector containing an N-terminal His6 tag in Rosetta (DE3) competent cells (Novagen, Millipore Sigma). ISCA2 production was induced by treating ISCA2 transformed log phase cells with 0.25 mM IPTG for 4 hours at 18° C. ISCA2 was purified using Ni^2+ affinity purification according to standard protocols and eluted in 50 mM Tris-C1 pH7.4, 150 mM NaCl, 5 mM DTT. Thermal shift assays were performed in 384-well plates using 1 μl of a 10× concentration of SYPRO Orange, 8 μl of ISCA2 (4 μg protein) and 1 μl of 1-2 mM stock of test compound per well. The LightCycler was used according to the following setup: LightCycler 480 Instrument Temperature Setup: First target of 20° C., with a Hold of 15 seconds; second target of 95° C., with Acquisition Mode of Continuous, and 10 acquisitions per degree c.; and third target of 20° C., with a Hold of 15 seconds. Tms were determined using Roche Protein Melting Analysis Software. Representative data are shown in FIGS. 6 and 7 using compound 1 and 26HCL at 200 and 100 µM final concentration respectively. […] These findings are supported by studies showing that re-expression of VHL (which increases ISCA2) and overexpression of ISCA2 itself, promotes the resistance of cells to the compounds (shown in FIG. 8).

786-0 cells = assay: Resazurin cell viability assay, with or without DFO and other inhibitors; type: cell-based, human
Experimental: Screens for inhibitory activity of compounds described herein were performed using 786-0 ccRCC cells that stably express HRE-Luc: 5 copies of the hypoxia-responsive element (HRE) fused to the pGL3 luciferase reporter (Promega Corp, Madison WI). 786-0 cells are pVHL deficient and thus constitutively express HIF-2α independently of cellular oxygen tension. Since 786-0 cells lack HIF-1α, HRE-driven luciferase activity is primarily HIF-2α driven, and has been previously validated. Cells were maintained at log phase growth in […] (DMEM) with 10% FBS in a humidified incubator at 37° C. with 5% CO2. For screening assays, cells were seeded at a density of 4,000 cells in 50 μl of complete media/well in quadruplicate wells/point in a 96-well plate. After 24 h, 50 μl of a 2× concentration of test compound was added to each well. Compounds were diluted from a 5-10 mM stock in DMSO and final concentrations of DMSO in each well in controls and treated wells were kept constant at ≤0.6% DMSO. After 24 h treatment, luciferase activity was measured using the Steady-Glo Luciferase assay system (Promega Corp) according to the manufacturer's protocol. Cell viability was measured in quadruplicate parallel wells using resazurin as recommended by the manufacturer (R&D systems, Minneapolis, MN). Data for luciferase and resazurin were normalized to DMSO treated controls (defining 100%) and wells containing assay reagent but no cells (defining 0%) and graphed using the log inhibitor versus normalized response option in Graphpad Prism 9.3.1 software. Representative data determined using Steady-Glo luciferase and resazurin are shown in FIGS. 1A and 1B respectively, with error bars showing SD. Filled diamonds, empty squares and empty triangles indicate treatment with 3, 8 and 22 respectively with results for HRE-Luc shown in FIG. 1A.
In view of the increased cellular iron concentrations induced by the compounds described herein, the involvement of iron in mediating cell death was determined. Cell viability assays were performed as described in Example 2 using resazurin as a cell viability readout and performed in the absence or presence of 100 μM of the iron chelator, DFO (D9533, MilliporeSigma, St Louis, MO). […] Viability IC50 values are shown in brackets.

786-0 ccRCC cells = assay: ICP-MS of cellular iron, zinc and copper; type: cell-based, human; conditions: 786-0 cells, 2.5 μM compound
Experimental: These studies were performed to determine the content of iron and other transition metals in cells after exposure the compounds described herein. 786-0 cells were seeded at 1.5 million cells/flask in T75 cm^2 flasks in DMEM+10% FBS, and allowed to adhere overnight. Cells were then treated with indicated concentrations of compounds in DMSO or DMSO alone (vehicle) for a further 24 h, after which cells were detached by trypsinization, counted, washed twice in phosphate-buffered saline (PBS) and pelleted. Experiments were performed using three replicate T75 cm^2 flasks per condition. A 5:1 mixture of nitric acid (OPTIMA Grade, 70%, Fisher Scientific) and ultrapure hydrogen peroxide (ULTREX II, 30%, Fisher Scientific) was added to cell pellets. This mixture was allowed to digest overnight, heated until dry, and resuspended in 2% nitric acid for analysis using an Agilent 7900 ICP-MS (Agilent Technologies, Santa Clara, CA). Calibration standard solutions for determination of Fe were prepared from Agilent multi-element calibration standard-2A. An Agilent Environmental Calibration Standard was used as an independent control. PBS-only control digestions were used to measure background. Metal readings were normalized to cell number. Data obtained from these studies for three replicate readings (with SEM) are shown in FIG. 3, which show an increase in cellular iron (Fe) content after treatment with indicated compounds.

Bioavailability studies = type: in vivo; conditions: mouse, in vivo, Swiss albino mice

COc1ccc(-c2nnc(Nc3nc4c(OC)nccc4[nH]3)o2)cc1OC [Compound 26HCL, N-(4-Methoxy-1H-imidazo[4,5-c]pyridin-2-yl)-5-(3,4-dimethoxyphenyl)-1,3,4-oxadiazol-2-amine]
effect of ISCA2 overexpression on cell viability response to compound [1]: ISCA2 overexpression promotes resistance
effect on transcription of HIF target genes (VEGFA, POU5F1) [2]: decrease transcription of HIF target genes
Tm of ISCA2 in compound-treated wells (ISCA2; 100 μM compound, control wells 55.02±0.2): 56.3±0.02 °C
change in melting temperature of ISCA2 (in words) (ISCA2; compound 1 and 26HCL at 200 and 100 μM final concentration respectively): significant change in melting temperature of ISCA2
mechanism of cell death (786-0 cells; 24h, co-treatment with DFO, NAC, liproxstatin or ZVAD-FMK): iron-oxidant dependent and apoptosis/caspase-independent mechanism of cell death
effect of DFO co-treatment on compound-mediated loss of cell viability (786-0 cells; DFO 100 μM, FIG. 4B): protective effects of DFO
cellular iron (Fe), zinc (Zn) and copper (Cu) content (786-0 ccRCC cells): increases the content of iron, zinc and copper in cells
bioavailability (Bioavailability studies; oral, read-out: Bioavailability F): 27.3%
half-life (Bioavailability studies; read-out: half-life (converted)): 3.61 h
